In article PMC4704022, “Insights on FXR selective modulation. Speculation on bile acid chemical space in the discovery of potent and selective agonists” (Scientific Reports, 2016):
“Also recorded” adds a separate entry of the source.

What was measured:
NASH patients = tested on: NASH patients; set-up: method as in PMID 25468160; conditions: cited from earlier work
PBC patients = conditions: cited from earlier work
FXR = target: T1, FXR (Homo sapiens, UniProt Q96RI1); assay: FXR transactivation luciferase reporter assay in transfected HepG2 cells; format: cell-based; conditions: for FXR transactivation activity (in words): HepG2 cells, compounds at 10 μM, CDCA 10 μM and 6-ECDCA 1 μM as positive controls; for EC50: HepG2 cells transfected with FXR, luciferase reporter, 100 nM to 10 μM
T1 construct: expressed in transfected cells; host or cells: HepG2
T1 sequence (Q96RI1 1-486): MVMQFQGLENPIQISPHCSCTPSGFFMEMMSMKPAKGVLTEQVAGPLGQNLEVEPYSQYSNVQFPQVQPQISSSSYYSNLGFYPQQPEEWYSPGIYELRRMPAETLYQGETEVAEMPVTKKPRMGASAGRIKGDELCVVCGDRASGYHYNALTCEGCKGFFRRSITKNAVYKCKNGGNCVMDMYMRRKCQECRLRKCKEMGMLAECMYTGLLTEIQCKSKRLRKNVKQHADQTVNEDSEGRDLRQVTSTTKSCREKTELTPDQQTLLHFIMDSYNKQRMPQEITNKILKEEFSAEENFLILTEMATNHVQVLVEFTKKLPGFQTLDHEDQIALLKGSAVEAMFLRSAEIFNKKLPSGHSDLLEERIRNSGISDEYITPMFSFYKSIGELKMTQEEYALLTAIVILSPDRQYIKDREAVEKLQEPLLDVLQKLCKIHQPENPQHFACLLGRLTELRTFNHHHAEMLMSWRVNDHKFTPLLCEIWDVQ
T1 sequence (P19793 1-462 partner): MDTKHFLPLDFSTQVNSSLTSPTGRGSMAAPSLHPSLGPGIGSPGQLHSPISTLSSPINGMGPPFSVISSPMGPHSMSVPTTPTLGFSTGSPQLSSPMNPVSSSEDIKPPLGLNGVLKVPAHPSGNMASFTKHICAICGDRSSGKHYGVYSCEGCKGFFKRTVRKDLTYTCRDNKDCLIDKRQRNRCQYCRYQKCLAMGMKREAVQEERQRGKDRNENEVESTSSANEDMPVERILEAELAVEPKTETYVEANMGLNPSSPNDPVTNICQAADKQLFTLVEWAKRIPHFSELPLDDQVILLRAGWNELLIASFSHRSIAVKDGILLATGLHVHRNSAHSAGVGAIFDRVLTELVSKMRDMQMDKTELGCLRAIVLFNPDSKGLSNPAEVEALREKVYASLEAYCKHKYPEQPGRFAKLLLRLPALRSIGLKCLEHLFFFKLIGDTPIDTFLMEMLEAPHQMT
Experimental: Figure 6 Transactivation assays on FXR. (A) HepG2 cells were transfected with pSG5-FXR, pSG5-RXR, pCMV-βgal, and p(hsp27)TKLUC vectors. […] Twenty-four hour post transfection cells were stimulated with increasing concentrations of each agent: range from 100 nM to 10 μM.
To evaluate the transcriptional activity of FXR, HepG2 cells were transiently transfected with Fugene HD reagent (Promega) using the followings plasmids: pCMVSPORT-humanFXR, pSG5RXR, p(hsp27)TKLUC and pGL4.70, a plasmid containing the Renilla gene used for luciferase normalization.

GPBAR1 [1] = target: T2, GPBAR1 (Homo sapiens, UniProt Q8TDU6); assay: GPBAR1 agonism, CRE-luciferase transactivation assay in transfected HEK-293T cells; format: cell-based; conditions: from FXR and GPBAR1 transactivation results
T2 construct: expressed in transfected cells; host or cells: HEK-293T
T2 sequence (Q8TDU6 1-330): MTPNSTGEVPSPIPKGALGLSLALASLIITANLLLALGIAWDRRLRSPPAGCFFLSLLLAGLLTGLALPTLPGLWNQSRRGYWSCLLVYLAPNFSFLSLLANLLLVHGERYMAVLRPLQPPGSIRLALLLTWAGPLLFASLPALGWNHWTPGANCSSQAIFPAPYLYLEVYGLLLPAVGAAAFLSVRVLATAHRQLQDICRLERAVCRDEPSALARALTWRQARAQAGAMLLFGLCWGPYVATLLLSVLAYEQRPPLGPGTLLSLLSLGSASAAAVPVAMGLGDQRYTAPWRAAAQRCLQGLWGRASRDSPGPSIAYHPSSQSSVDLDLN
Experimental: (A) HEK-293T cells were co-transfected with GPBAR1 and a reporter gene containing a cAMP responsive element in front of the luciferase gene. Twenty-four hour post transfection cells were stimulated with 7–21 (10 μM). Luciferase activity served as a measure of the rise in intracellular cAMP following activation of GPBAR1. […] Twenty-four hour post transfection cells were stimulated with increasing concentrations of each agent: range from 100 nM to 50 μM. Results are expressed as mean ± standard error.
To investigate GPBAR1 activation, HEK-293T cells were transiently transfected with Fugene HD reagent (Promega) using the following vectors: pCMVSPORT6-human GPBAR1, pGL4.29 (Promega), a reporter vector containing a cAMP response element (CRE) cloned upstream to the luciferase reporter gene luc2P and pGL4.70. […] Dose-response curves were performed in HEK-293T cells transfected as described above and treated with increasing concentrations of 9 and 21 (from 100 nM to 50 μM). […] At 18 h post stimulations, cellular lysate was assayed for luciferase and renilla activities using the Dual-Luciferase Reporter assay system (E1980, Promega). Luminescence was measured using Glomax 20/20 luminometer (Promega). Luciferase activities were normalized with Renilla activities.

FXR-LBD = target: T3, FXR-LBD (Homo sapiens, UniProt Q96RI1); assay: Alphascreen coactivator recruitment assay, FXR-LBD with SRC-1 peptide; format: biochemical; conditions: ligand at 2 μM, effect of 6 set as 100%
T3 construct: 10 nM of purified GST-tagged FXR-LBD protein
T3 sequence (Q96RI1 262-486 limits assumed): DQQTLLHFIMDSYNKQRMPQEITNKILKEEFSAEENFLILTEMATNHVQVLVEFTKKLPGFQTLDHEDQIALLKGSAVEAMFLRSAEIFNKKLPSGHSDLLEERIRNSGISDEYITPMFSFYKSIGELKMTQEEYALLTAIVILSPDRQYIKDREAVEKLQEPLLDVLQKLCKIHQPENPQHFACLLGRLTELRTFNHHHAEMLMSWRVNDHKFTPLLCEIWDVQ
Experimental: Figure 7 Coactivator recruitment assay measuring a direct interaction of FXR with SRC-1. Anti-GST-coated acceptor beads captured GST-fusion FXR-LBD and the biotinylated-SRC-1 peptide was captured by the streptavidin donor beads. FXR-LBD recruited SRC-1 in the presence of ligand at 2 μM and, upon illumination at 680 nm, chemical energy is transferred from donor to acceptor beads across the complex streptavidin-donor/Src-1-biotin/ligand/GSTFXR-LBD/anti-GST-acceptor and a signal is produced. Results are expressed as percentage of the effect of 6 arbitrarily settled as 100%. NT is referred to the experiment carried out in absence of ligand. Results are expressed as mean ± standard error.
The relative potency of selected members of this novel family was then investigated by a detailed measurement of concentration-response curve of the 3-deoxy sulfate derivative 9, the corresponding carboxylic acid 10, and the 3β-hydroxyl alcohol 15 and carboxylic acid derivative 17, all sharing the 6α/7α configuration, on FXR transactivation. […] In this assay, the ligand induces the recruitment of the coactivator to the LBD of hFXR.
Anti-GST-coated acceptor beads were used to capture the GST-fusion FXR-LBD, whereas the biotinylated-SRC-1 peptide was captured by the streptavidin donor beads. Upon illumination at 680 nm, chemical energy is transferred from donor to acceptor beads across the complex streptavidin-donor/Src-1-biotin/GSTFXR-LBD/anti-GST-acceptor and a signal is produced. The assay was performed in white, low-volume, 384-well Optiplates (PerkinElmer) using a final volume of 25 μL containing final concentrations of 10 nM of purified GST-tagged FXR-LBD protein, 30 nM biotinylated Src-1 peptide, 20 μg/mL anti-GST acceptor beads acceptor beads, and 10 μg/mL of streptavidin donor bead (PerkinElmer). The assay buffer contained 50 mM Tris (pH 7.4), 50 mM KCl, 0.1% BSA, and 1 mM DTT. […] After the addition of the detection mix (acceptor and donor beads), the plates were incubated in the dark for 4 h at room temperature and then were read in an Envision microplate analyzer (PerkinElmer).

GPBAR1 [2] = tested on: GPBAR1; set-up: method as in PMID 25247751; conditions: cited from earlier work

CC[C@H]1[C@@H](O)[C@@H]2[C@H](CC[C@]3(C)[C@@H]([C@H](C)CCC(=O)O)CC[C@@H]23)[C@@]2(C)CC[C@@H](O)C[C@@H]12 [6-ECDCA, 6-ethylchenodeoxycholic acid]
NASH resolution, patients (NASH patients; after 72 weeks, p = 0.08 vs. placebo): 22% | Decrease in HDL-C levels (NASH patients; as compared to placebo): 5% | Increase in LDL-C (NASH patients; as compared to placebo): 16% | Primary histological outcome (NAFLD activity score) and fibrosis score (NASH patients; compared with placebo): significantly improved | Drug discontinuation due to exacerbation of itching, patients (PBC patients; PBC patients): 40% | Drug discontinuation, patients (PBC patients; due to pruritus): 40% | Incidence of pruritus, patients (PBC patients; patients with primary biliary cirrhosis): up to 80%

CC[C@H]1[C@@H](O)C2C3CC[C@H]([C@H](C)CCCO)[C@@]3(C)CCC2[C@@]2(C)CCCC[C@@H]12 (some centres unmarked) [compound 7]
FXR transactivation activity (in words) (FXR): potent agonists of FXR

CC[C@H]1[C@H](O)C2C3CC[C@H]([C@H](C)CCCO)[C@@]3(C)CCC2[C@@]2(C)CCCC[C@@H]12 (some centres unmarked) [compound 8]
FXR transactivation activity (in words) (FXR): completely inactive towards FXR

CC[C@H]1[C@@H](O)C2C3CC[C@H]([C@H](C)CCCOS(=O)(=O)O)[C@@]3(C)CCC2[C@@]2(C)CCCC[C@@H]12 (some centres unmarked) [compound 9]
EC50 (FXR): 1100 nM | FXR transactivation activity (in words) (FXR): potent agonists of FXR | Receptor preference FXR versus GPBAR1 (in words) (GPBAR1 [1]): preferential FXR modulator with a residual activity on GPBAR1

CC[C@H]1[C@H](O)[C@@H]2[C@H](CC[C@]3(C)[C@@H]([C@H](C)CCC(=O)O)CC[C@@H]23)[C@@]2(C)CCCC[C@@H]12 [compound 11, 6α-ethyl-7β-hydroxy-5β-cholan-24-oic acid]
FXR transactivation activity (in words) (FXR): retains a certain activity

CC[C@H]1[C@@H](O)C2C3CC[C@H]([C@H](C)CCC(=O)NCCS(=O)(=O)O)[C@@]3(C)CCC2[C@@]2(C)CCCC[C@@H]12 (some centres unmarked) [compound 12]
FXR transactivation activity (in words) (FXR): ability in transactivating FXR is also maintained; also recorded: still a potent FXR agonist

CC[C@@H]1[C@H](O)C2C3CC[C@H]([C@H](C)CCCO)[C@@]3(C)CCC2[C@@]2(C)CCCC[C@@H]12 (some centres unmarked) [compound 13]
FXR transactivation activity (in words) (FXR): complete loss of activity

CC[C@H]1[C@@H](O)[C@@H]2[C@H](CC[C@]3(C)[C@@H]([C@H](C)CCCO)CC[C@@H]23)[C@@]2(C)CC[C@H](O)C[C@@H]12 [compound 15, 6α-ethyl-3β,7α-dihydroxy-5β-cholan-24-ol]
EC50 (FXR): 2200 nM | FXR transactivation activity (in words) (FXR): potent agonists of FXR | Recruitment of SRC-1 coactivator to FXR-LBD (in words) (FXR-LBD): very potent activity in the recruitment of SRC-1 co-activator

CC[C@H]1[C@@H](O)[C@@H]2[C@H](CC[C@]3(C)[C@@H]([C@H](C)CCC(=O)O)CC[C@@H]23)[C@@]2(C)CC[C@H](O)C[C@@H]12 [compound 17, 6α-ethyl-3β,7α-dihydroxy-5β-cholan-24-oic acid]
FXR transactivation activity (in words) (FXR): potent agonists of FXR | Recruitment of SRC-1 coactivator to FXR-LBD (in words) (FXR-LBD): very potent activity in the recruitment of SRC-1 co-activator

CC[C@H]1[C@@H](O)C2C3CC[C@H]([C@H](C)CCC(=O)NCCS(=O)(=O)O)[C@@]3(C)CCC2[C@@]2(C)CC[C@H](O)C[C@@H]12 (some centres unmarked) [compound 19]
FXR transactivation activity (in words) (FXR): considerable decrease in FXR transactivation activity; also recorded: detrimental in term of FXR activation

CC[C@@H]1[C@H](O)C2C3CC[C@H]([C@H](C)CCCO)[C@@]3(C)CCC2[C@@]2(C)CC[C@H](O)C[C@@H]12 (some centres unmarked) [compound 20]
FXR transactivation activity (in words) (FXR): complete loss of activity

CC[C@@H]1[C@@H](O)C2C3CC[C@H]([C@H](C)CCCO)[C@@]3(C)CCC2[C@@]2(C)CC[C@H](O)C[C@@H]12 (some centres unmarked) [compound 21]
FXR transactivation activity (in words) (FXR): less potent then CDCA in transactivating FXR | Receptor preference FXR versus GPBAR1 (in words) (GPBAR1 [1]): weak but preferential GPBAR1 activator

C[C@H](CCC(=O)O)[C@H]1CC[C@H]2[C@@H]3[C@H](O)C[C@@H]4C[C@@H](O)CC[C@]4(C)[C@H]3CC[C@]12C [iso-CDCA, isochenodeoxycholic acid]
GPBAR1 activity (in words) (GPBAR1 [2]): very weak activity towards GPBAR1

C[C@H](CCC(=O)O)[C@H]1CC[C@H]2[C@@H]3CC[C@@H]4C[C@@H](O)CC[C@]4(C)[C@H]3CC[C@]12C [iso-LCA]
GPBAR1 activity (in words) (GPBAR1 [2]): less potent respect to the cognate LCA
